Measured values as given in ChEMBL document CHEMBL1795334, “Towards predictive inhibitor design for the EGFR autophosphorylation activity” (Eur J Med Chem, 2008).

The compounds below were run against Epidermal growth factor receptor (Homo sapiens, UniProt P00533) (assay: Inhibition autophosphorylation of EGFR in human DiFi cells after 2 hrs by ELISA).
Type: cell-based

Sequence of Epidermal growth factor receptor (P00533 whole entry): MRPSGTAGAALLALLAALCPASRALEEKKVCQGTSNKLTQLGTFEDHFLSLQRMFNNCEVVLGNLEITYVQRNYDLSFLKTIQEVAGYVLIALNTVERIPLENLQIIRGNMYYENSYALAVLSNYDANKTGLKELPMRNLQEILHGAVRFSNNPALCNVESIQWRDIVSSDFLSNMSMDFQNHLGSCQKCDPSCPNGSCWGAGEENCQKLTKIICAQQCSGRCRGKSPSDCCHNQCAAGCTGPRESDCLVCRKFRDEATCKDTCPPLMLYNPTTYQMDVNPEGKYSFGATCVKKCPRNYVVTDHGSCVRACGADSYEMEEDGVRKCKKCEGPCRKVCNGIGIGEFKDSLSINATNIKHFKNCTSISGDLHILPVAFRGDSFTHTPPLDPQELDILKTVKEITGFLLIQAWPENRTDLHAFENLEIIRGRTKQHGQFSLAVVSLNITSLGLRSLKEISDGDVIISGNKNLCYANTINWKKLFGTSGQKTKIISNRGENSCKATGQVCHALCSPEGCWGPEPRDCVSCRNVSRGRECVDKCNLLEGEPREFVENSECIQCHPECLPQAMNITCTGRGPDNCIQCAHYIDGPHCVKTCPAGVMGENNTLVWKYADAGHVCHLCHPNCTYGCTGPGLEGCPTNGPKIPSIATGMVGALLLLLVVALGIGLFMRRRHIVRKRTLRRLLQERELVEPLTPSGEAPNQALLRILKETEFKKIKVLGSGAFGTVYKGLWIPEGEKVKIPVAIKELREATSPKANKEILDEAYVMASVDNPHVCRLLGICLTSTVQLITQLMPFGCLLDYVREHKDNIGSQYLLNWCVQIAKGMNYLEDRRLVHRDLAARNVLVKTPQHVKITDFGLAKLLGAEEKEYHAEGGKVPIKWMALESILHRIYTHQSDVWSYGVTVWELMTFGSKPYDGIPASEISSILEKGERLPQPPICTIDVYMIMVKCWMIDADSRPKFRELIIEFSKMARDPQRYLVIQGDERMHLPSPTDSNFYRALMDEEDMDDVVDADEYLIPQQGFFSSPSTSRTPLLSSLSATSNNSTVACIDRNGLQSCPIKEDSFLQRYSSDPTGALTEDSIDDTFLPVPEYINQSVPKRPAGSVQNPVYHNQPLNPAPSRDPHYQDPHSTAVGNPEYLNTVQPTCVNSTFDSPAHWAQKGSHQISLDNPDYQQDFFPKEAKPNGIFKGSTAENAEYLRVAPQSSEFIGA

Row | Compound | IC50 [µM]
1 | COc1cc2ncc(C#N)c(Nc3cccc(C#N)c3)c2cc1OC | 14.1
2 | COc1cc2ncc(C(=O)O)c(Nc3cccc(Br)c3)c2cc1OC | 33.9
3 | CCOc1cc2ncc(C#N)c(Nc3cccc(Br)c3)c2cc1OC | 21.4
4 | COc1cc2ncc(C#N)c(Nc3cccc(NC(C)=O)c3)c2cc1OC | 69.2
5 | CCOc1cc2c(Nc3cccc(Br)c3)c(C#N)cnc2cc1OC | 33.1
6 | COc1cc2ncc(C#N)c(Nc3ccc(F)cc3)c2cc1OC | 47.9
7 | COc1cc2ncc(C#N)c(Nc3cccc(C(C)C)c3)c2cc1OC | 61.7
8 | COc1cc2ncc(C#N)c(Nc3cccc(O)c3)c2cc1OC | 6.31
9 | COc1cc2ncc(C#N)c(Nc3ccc(O)c(Cl)c3)c2cc1OC | 9.12
10 | COc1cc2ncc(C#N)c(Nc3ccccc3Br)c2cc1OC | 4.17
11 | COc1cc2ncc(C#N)c(Nc3ccc(Cl)cc3F)c2cc1OC | 13.8
12 | COc1cc2ncc(C#N)c(Nc3cccc(C(N)=O)c3)c2cc1OC | 7.76
13 | COc1cc2c(C#N)cnc(Nc3cccc(Cl)c3)c2cc1OC | 89.1
14 | COCOc1cc2ncc(C#N)c(Nc3cccc(Br)c3)c2cc1OCOC | 6.76

These reach a lower IC50. Values come first.

Row | IC50 [µM] | Compound
15 | 0.182 | COc1cc2ncc(C#N)c(Nc3cccc(Cl)c3)c2cc1OC
16 | 0.977 | CCOc1cc2ncc(C#N)c(Nc3ccc(F)c(Cl)c3)c2cc1OCC
17 | 0.832 | COc1cc2ncc(C#N)c(Nc3cccc(Br)c3C)c2cc1OC
18 | 0.813 | COc1cc2ncc(C#N)c(Nc3cccc(N)c3)c2cc1OC
19 | 1.48 | COc1cc2ncc(C#N)c(Nc3ccc(C)c(Cl)c3)c2cc1OC
20 | 3.39 | COc1cc2ncc(C=O)c(Nc3cccc(Br)c3)c2cc1OC
21 | 0.417 | CCOc1cc2ncc(C#N)c(Nc3cccc(Br)c3)c2cc1OCC
22 | 0.617 | COc1cc2ncc(C#N)c(Nc3ccc(Br)c(C)c3)c2cc1OC
23 | 1.78 | COc1cc2ncc(C#N)c(Nc3ccc(C)c(Br)c3)c2cc1OC
24 | 0.759 | COc1cc2ncc(C#N)c(Nc3cccc(SC)c3)c2cc1OC
